Patent US20230322813A1, “COMPOUNDS AND METHODS FOR TREATMENT OF VIRAL INFECTIONS” (Gilead Sciences, Inc., priority 2022, published 2023)
Like-named read-outs stand apart in the source and are kept apart here.

Key:
[1] = test system: Respiratory syncytial virus recombinant with luciferase (RSV-Luc5); experiment: microbe, parasite or virus in culture; format: cell-based; settings: human respiratory syncytial virus, HEp-2, 72 h, read-out: RSV Hep2 EC50
[2] = test system: Respiratory syncytial virus recombinant with luciferase (RSV-Luc5); experiment: microbe, parasite or virus in culture; format: cell-based; settings: human respiratory syncytial virus, NHBE, 72 h, read-out: RSV NHBE EC50
[3] = test system: SARS Coronavirus 2 recombinant with NanoLuc (SARS-CoV2-NLuc); experiment: organism not typed; format: cell-based; settings: 48 h
[4] = in vitro; format: cell-based; settings: human
Procedure: Cytotoxicity of the compounds was determined in uninfected cells using the cell viability reagent in a similar fashion as described before for other cell types (Cihlar et al., Antimicrob Agents Chemother. 2008, 52(2):655-65). HEp-2 (1.5×10^3 cells/well) and MT-4 (2×10^3 cells/well) cells were plated in 384-well plates and incubated with the appropriate medium containing 3-fold serially diluted compound ranging from 15 nM to 100,000 nM. Cells were cultured for 4-5 days at 37° C. Following the incubation, the cells were allowed to equilibrate to 25° C., and cell viability was determined by adding Cell-Titer Glo viability reagent. The mixture was incubated for 10 min, and the luminescence signal was quantified using an Envision plate reader. Untreated cell and cells treated at 2 μM puromycin (Sigma, St. Louis, MO) serve as 100% and 0% cell viability control, respectively.

[5] = parameters: species or system Sprague-Dawley rats; settings: male, Sprague-Dawley, rat, in vivo, po; for Reference Compound A F %: 1 mg/kg; for Cmax / Reference Compound A AUCinf.: 8.1 mg/kg
Procedure: Ester Reference Compound, Compound 3 and Compound 6 were dosed orally by gavage to male Sprague-Dawley rats (n=3/group); Ester Reference Compound at 6 mg/kg in 2.5% Dimethyl sulfoxide; 10% Kolliphor HS-15; 10% Labrasol; 2.5% Propylene glycol and 75% water, pH 2.5; Compound 3 at 6.65 mg/kg in 10% Dimethyl sulfoxide; 40% Kolliphor HS-15; 40% Labrasol and 10% Propylene glycol and Compound 6 at 8.1 mg/kg in 2.5% Dimethyl sulfoxide; 10% Kolliphor HS-15; 10% Labrasol; 2.5% Propylene glycol and 75% water, pH 2.8. Blood samples were collected into pre-chilled collection tubes containing K2EDTA and processed to plasma at 10 time points over a span of pre-dose to 24 h post-administration. Plasma samples were subject to protein precipitation with a 12.5-fold volume of methanol, vortexed and centrifuged. Supernatants were transferred and evaporated to dryness under nitrogen and reconstituted with 5% acetonitrile in water. Separation was achieved on a Phenomenex Synergi Polar-RP column, a mobile phase A of 10 mM ammonium formate with 0.1% formic acid in water and a mobile phase B of 0.1% formic acid in acetonitrile with a step-wise linear gradient from 5 to 95% mobile phase B. An LC-MS/MS method was used to measure the concentrations of the Reference Compound A and either Ester Reference Compound, Compound 3 or Compound 6 in plasma.

Row | Structure (SMILES) | EC50 [1] | EC50 [2] | EC50 [3] | CC50 [4] | Reference Compound A F % [5] | Cmax [5] | Reference Compound A AUCinf. [5]
1 | CC(C)C(=O)OC[C@H]1O[C@@](C#N)(c2ccc3c(N)ncnn23)[C@@H]2OC(=O)O[C@@H]21 [Compound 3, ((3aR,4R,6R,6aR)-6-(4-aminopyrrolo[2,1-f][1,2,4]triazin-7-yl)-6-cyano-2-oxotetrahydrofuro[3,4-d][1,3]dioxol-4-yl)methyl isobutyrate] | 330 nM | 512 nM | 1750 nM | 50000 nM | 84.7% | 2280 nM | 10.7 µM·h
2 | COC1O[C@H]2[C@@H](O1)[C@](C#N)(c1ccc3c(N)ncnn13)O[C@@H]2COC(=O)C(C)C (stereo partly drawn) [Compound 4, ((3aR,4R,6R,6aR)-6-(4-aminopyrrolo[2,1-f][1,2,4]triazin-7-yl)-6-cyano-2-methoxytetrahydrofuro[3,4-d][1,3]dioxol-4-yl)methyl isobutyrate] | – | – | > 50000 nM | > 5000 nM | – | – | –
3 | CC(C)C(=O)OC[C@H]1O[C@@](C#N)(c2ccc3c(=N)n(COP(=O)(O)OCc4ccccc4)cnn23)[C@H](O)[C@@H]1O [Compound 5, ((2R,3S,4R,5R)-5-(3-((((benzyloxy)(hydroxy)phosphoryl)oxy)methyl)-4-imino-3,4-dihydropyrrolo[2,1-f][1,2,4]triazin-7-yl)-5-cyano-3,4-dihydroxytetrahydrofuran-2-yl)methyl isobutyrate] | – | – | > 50000 nM | > 50000 nM | – | – | –
4 | CC(C)C(=O)OC[C@H]1O[C@@](C#N)(c2ccc3c(=N)n(COP(=O)(O)O)cnn23)[C@H](O)[C@@H]1O [Compound 6, ((2R,3S,4R,5R)-5-cyano-3,4-dihydroxy-5-(4-imino-3-((phosphonooxy)methyl)-3,4-dihydropyrrolo[2,1-f][1,2,4]triazin-7-yl)tetrahydrofuran-2-yl)methyl isobutyrate] | 719 nM | 3550 nM | 3650 nM | 50000 nM | 54.4% | 3080 nM | 6.86 µM·h
5 | CC(=O)Nc1ncnn2c([C@]3(C#N)O[C@H](COC(C)=O)[C@@H](OC(C)=O)[C@H]3OC(C)=O)ccc12 [Compound 7, (2R,3R,4R,5R)-2-(4-acetamidopyrrolo[2,1-f][1,2,4]triazin-7-yl)-5-(acetoxymethyl)-2-cyanotetrahydrofuran-3,4-diyl diacetate] | – | 932 nM | 5540 nM | – | – | – | –
6 | CCCC(=O)Nc1ncnn2c([C@]3(C#N)O[C@H](COC(C)=O)[C@@H](OC(C)=O)[C@H]3OC(C)=O)ccc12 [Compound 8, (2R,3R,4R,5R)-5-(acetoxymethyl)-2-(4-butyramidopyrrolo[2,1-f][1,2,4]triazin-7-yl)-2-cyanotetrahydrofuran-3,4-diyl diacetate] | – | 405 nM | 3140 nM | – | – | – | –
7 | CCCC(=O)Nc1ncnn2c([C@]3(C#N)O[C@H](COC(=O)C(C)C)[C@@H](O)[C@H]3O)ccc12 [Compound 9, ((2R,3S,4R,5R)-5-(4-butyramidopyrrolo[2,1-f][1,2,4]triazin-7-yl)-5-cyano-3,4-dihydroxytetrahydrofuran-2-yl)methyl isobutyrate] | 529 nM | – | 1950 nM | > 50000 nM | – | – | –
8 | CCCCCC(=O)Nc1ncnn2c([C@]3(C#N)O[C@H](COC(=O)C(C)C)[C@@H](O)[C@H]3O)ccc12 [Compound 10, ((2R,3S,4R,5R)-5-cyano-5-(4-hexanamidopyrrolo[2,1-f][1,2,4]triazin-7-yl)-3,4-dihydroxytetrahydrofuran-2-yl)methyl isobutyrate] | – | – | 1220 nM | > 50000 nM | – | – | –
9 | CCCCCCCC(=O)Nc1ncnn2c([C@]3(C#N)O[C@H](COC(=O)C(C)C)[C@@H](O)[C@H]3O)ccc12 [Compound 11, ((2R,3S,4R,5R)-5-cyano-3,4-dihydroxy-5-(4-octanamidopyrrolo[2,1-f][1,2,4]triazin-7-yl)tetrahydrofuran-2-yl)methyl isobutyrate] | – | 188 nM | 935 nM | 42400 nM | – | – | –
10 | CC(C)C(=O)OC[C@H]1O[C@@](C#N)(c2ccc3c(N)ncnn23)[C@H](O)[C@@H]1O [Ester Reference Compound, reference compound] | – | – | – | – | – | 2100 nM | 7.57 µM·h
